ChEMBL document CHEMBL4610107, “Ene-yne Hydroquinones from a Marine-derived Strain of the Fungus Pestalotiopsis neglecta with Effects on Liver X Receptor Alpha” (J Nat Prod, 2020)

Molecular target: T1, Oxysterols receptor LXR-alpha (Homo sapiens, UniProt Q13133)
T1 sequence (Q13133 whole entry): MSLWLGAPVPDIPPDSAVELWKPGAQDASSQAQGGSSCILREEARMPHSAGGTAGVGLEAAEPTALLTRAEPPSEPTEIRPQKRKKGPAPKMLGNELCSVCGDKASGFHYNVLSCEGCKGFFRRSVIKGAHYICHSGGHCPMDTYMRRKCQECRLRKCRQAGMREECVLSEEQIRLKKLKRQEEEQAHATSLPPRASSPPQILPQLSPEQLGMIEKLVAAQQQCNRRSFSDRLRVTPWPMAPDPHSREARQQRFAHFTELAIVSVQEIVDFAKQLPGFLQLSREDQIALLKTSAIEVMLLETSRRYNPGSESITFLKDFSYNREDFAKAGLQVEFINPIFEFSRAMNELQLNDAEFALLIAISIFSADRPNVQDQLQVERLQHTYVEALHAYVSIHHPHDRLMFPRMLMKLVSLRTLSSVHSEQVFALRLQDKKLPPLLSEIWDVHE
Test: Binding affinity to LXRalpha (unknown origin) by surface plasmon resonance assay; call rule not given here

- Kd: Not Active
SMILES: O=C(O)Cc1cccc(OCCCN(Cc2cccc(C(F)(F)F)c2Cl)CC(c2ccccc2)c2ccccc2)c1
